The values that follow come from the RepoRT retention time repository.

A short description of the series: Waters ACQUITY UPLC BEH C18, 100 × 2.1 mm, 1.7 µm, 40 °C, 0.3 to 0.4 mL/min, estimated dead time 0.63 min; A: water + 0.1% formic acid; B: methanol + 0.1% formic acid; gradient (min/%B) 0/0.5 0.1/0.5 10/80 10.1/99.5 12/99.5. Conditions: stereoisomer not certain.

With `CC1(C)CC(O)C2(C)CCC3(C)C(=CCC4C5(C)CCC(OC6OC(C(=O)O)C(O)C(O)C6OC6OC(CO)C(O)C(O)C6OC6OCC(O)C(O)C6O)C(C)(CO)C5CCC43C)C2C1` (stereo unspecified), the LC retention time was 5.73 min.

On to `COc1c(CC=C(C)C)c(O)cc2oc(=O)c(-c3ccc(O)cc3O)cc12`, for which the LC retention time was 7.01 min.

As for `NC(CCC(=O)NC(Cc1ccc(O)cc1)C(=O)O)C(=O)O` (stereo unspecified), the LC retention time is 2.36 min.

For `CC1OC(OC2C(O)COC(OC3C(C)OC(OC4C(OC(=O)C56CCC(C)(C)CC5C5=CCC7C8(C)CCC(OC9OC(CO)C(O)C(O)C9O)C(C)(C)C8CCC7(C)C5(C)CC6O)OCC(O)C4O)C(O)C3O)C2O)C(O)C(O)C1O` (stereo unspecified), the LC retention time is 6.12 min.

For `COc1ccc(-c2coc3cc(OC4OC(CO)C(O)C(O)C4O)c(OC)cc3c2=O)cc1` (stereo unspecified), the LC retention time was 5.05 min.

In the case of `CC1OC(OCC2OC(Oc3cc(O)c4c(c3)OC(c3ccc(O)cc3)CC4=O)C(O)C(O)C2O)C(O)C(O)C1O` (stereo unspecified), the LC retention time was 4.28 min.

With `COc1cc(C(C)=O)cc(OC)c1O`, the LC retention time was 4.31 min.

For `COC(=O)CC(OC(=O)C=Cc1cc(OC)c(O)c(OC)c1)C(=O)OC` (stereo unspecified), the LC retention time was 3.28 min.

`CCC1CN2CCC3(C(=O)Nc4ccccc43)C2CC1C(=COC)C(=O)OC` (stereo unspecified): the LC retention time was 4.9 min.

For `O=C1CC(c2ccc(O)c(O)c2)Oc2c1ccc(OC1OC(CO)C(O)C(O)C1O)c2O` (stereo unspecified), the LC retention time was 3.47 min.

As to `COc1cc(C(O)C(CO)Oc2c(OC)cc(-c3cc(=O)c4c(O)cc(O)cc4o3)cc2OC)ccc1O` (stereo unspecified), the LC retention time is 6.2 min.

Regarding `C=C1CC23CC4C5C6(C)CC(OC(C)=O)CC57C2C(O)C1C(O)C3(O)C7N4C6` (stereo unspecified), the LC retention time was 3.03 min.

`CCCCCC=CCC=CCCCCCCCC(=O)OCC(O)COP(=O)([O-])OCC[N+](C)(C)C` (stereo unspecified): the LC retention time is 9.31 min.

Regarding `CC(C)=CCc1c(O)cc(O)c(CC=C(C)C)c1CCc1ccc(O)c(O)c1`, the LC retention time was 7.84 min.

In the case of `O=c1oc2cc(OC3OC(CO)C(O)C(O)C3O)ccc2c2oc3cc(O)ccc3c12` (stereo unspecified), the LC retention time is 4.38 min.

`CC1CCC2(OC1)OC1C(O)C3C4CCC5CC(OC6OC(CO)C(OC7OC(CO)C(O)C(OC8OCC(O)C(O)C8O)C7OC7OC(CO)C(O)C(OC8OC(CO)C(O)C(O)C8O)C7O)C(O)C6O)C(O)CC5(C)C4CCC3(C)C1C2C` (stereo unspecified): the LC retention time was 6.99 min.

With `CC1(C)CCC2(C(=O)OC3OC(CO)C(O)C(O)C3O)CCC3(C)C(=CCC4C5(C)CCC(OC6OC(C(=O)O)C(OC7OC(CO)C(O)C7O)C(O)C6O)C(C)(C)C5CCC43C)C2C1` (stereo unspecified), the LC retention time was 6.39 min.

Consider `COc1ccc(-c2coc3cc(O)cc(O)c3c2=O)cc1`, for which the LC retention time was 7.63 min.

On to `O=c1c(OC2OCC(O)C(O)C2O)c(-c2ccc(O)cc2)oc2cc(O)cc(O)c12` (stereo unspecified), for which the LC retention time was 4.47 min.

With `COc1cc(-c2oc3cc(O)cc(O)c3c(=O)c2O)ccc1O`, the LC retention time was 6.14 min.

`O=c1cc2oc(-c3ccc(O)cc3)ccc-2c(O)c1`: the LC retention time was 3.87 min.

With `COc1cc(-c2cc(=O)c3c(O)cc(OC4OC(COC(=O)CC(=O)O)C(O)C(O)C4O)cc3o2)cc(OC)c1O` (stereo unspecified), the LC retention time was 4.91 min.

On to `NC(C(=O)O)c1ccccc1` (stereo unspecified), for which the LC retention time was 2 min.

Regarding `CC(C)=CCC=C(C)C1CCC2(C)C1C(O)CC1C3(C)CCC(OC4OC(CO)C(O)C(O)C4O)C(C)(C)C3CCC12C` (stereo unspecified), the LC retention time was 7.63 min.

Regarding `COc1cc2ccc(=O)oc2cc1OC1OC(CO)C(O)C(O)C1O` (stereo unspecified), the LC retention time is 3.11 min.

Consider `COC(=O)C1=COC(C)C2CN3CCC4(C(=O)Nc5c4ccc(OC)c5OC)C3CC12` (stereo unspecified), for which the LC retention time was 4.48 min.

Take `CCN(CC)CCOC(=O)c1ccc(N)cc1`: the LC retention time was 2.75 min.

Take `COc1cc(C=CC(=O)NCCc2ccc(O)cc2)ccc1O`: the LC retention time was 5.13 min.

With `CC(C)=CCc1c(O)cc(O)c2c1OCC(c1ccc(O)cc1O)C2=O` (stereo unspecified), the LC retention time was 7.04 min.

`COc1cc2ccc(=O)oc2cc1O`: the LC retention time is 4.24 min.

`COC1=CC2C3Cc4ccc(OC)c(O)c4C2(CCN3C)CC1=O` (stereo unspecified): the LC retention time is 3.03 min.

`CC1OC(OC2C(OC3C(OC4CCC5(C)C(CCC6(C)C5CC=C5C7CC(C)(C)CC(O)C7(C)CCC56C)C4(C)CO)OC(C(=O)O)C(O)C3O)OC(C(=O)O)C(O)C2O)C(O)C(O)C1O` (stereo unspecified): the LC retention time was 7.06 min.

For `CCC1CN2CCC3(O)C(=Nc4cccc(OC)c43)C2CC1C(=COC)C(=O)OC` (stereo unspecified), the LC retention time is 4.26 min.

On to `COc1cc2c3cc1Oc1cc(ccc1O)CC1c4c(cc(OC)c(O)c4Oc4ccc(cc4)CC3N(C)CC2)CC[N+]1(C)C` (stereo unspecified), for which the LC retention time is 3.41 min.

As for `O=c1c(OC2OC(CO)C(O)C(O)C2O)c(-c2cc(O)c(O)c(O)c2)oc2cc(O)cc(O)c12` (stereo unspecified), the LC retention time was 3.64 min.

Consider `CC1OC(OCC2OC(Oc3c(-c4ccc(O)c(O)c4)oc4cc(OC5OC(CO)C(O)C(O)C5O)cc(O)c4c3=O)C(O)C(O)C2O)C(O)C(O)C1O` (stereo unspecified), for which the LC retention time was 3.39 min.

`O=C(C=Cc1ccc(O)c(O)c1)OC1CC2(O)CC(OC2=O)C1OC(=O)C=Cc1ccc(O)c(O)c1` (stereo unspecified): the LC retention time was 4.54 min.

On to `COC1OC2c3cc4c(cc3CCN(C)C2c2ccc3c(c21)OCO3)OCO4` (stereo unspecified), for which the LC retention time was 4.65 min.

For the compound `CC(CCC1(O)OC2CC3C4CC=C5CC(OC6OC(COC7OC(C)C(O)C(O)C7OC7OC(C)C(O)C(O)C7OC7OC(C)C(O)C(O)C7O)C(O)C(O)C6O)CCC5(C)C4CCC3(C)C2C1C)COC1OC(CO)C(O)C(O)C1O` (stereo unspecified), the LC retention time was 5.1 min.

In the case of `NCCCCNC(=O)C=Cc1ccc(O)c(O)c1`, the LC retention time was 2.22 min.

With `COc1cccc(-c2oc3cc(OC)ccc3c(=O)c2O)c1`, the LC retention time is 6.75 min.

In the case of `COc1cc(C=CC(=O)O)ccc1O`, the LC retention time was 4.24 min.

`O=C(C=Cc1ccc(O)cc1)NCCCCN(CCCNC(=O)C=Cc1ccc(O)cc1)C(=O)C=Cc1ccc(O)cc1`: the LC retention time was 5.62 min.

`CC1(C)CC(=O)C2(C)CCC3(C)C(=CCC4C5(C)CCC(OC6OC(C(=O)O)C(O)C(O)C6OC6OC(CO)C(O)C(O)C6OC6OC(CO)C(O)C(O)C6O)C(C)(CO)C5CCC43C)C2C1` (stereo unspecified): the LC retention time is 7.49 min.

With `CC1(C)CCC2(C(=O)O)CCC3(C)C(=CCC4C5(C)CC(O)C(O)C(C)(C(=O)OC6OC(COC(=O)CC(=O)O)C(O)C(O)C6O)C5CCC43C)C2C1` (stereo unspecified), the LC retention time was 7.45 min.

Turning to `CCC(C)C(N)C(=O)O` (stereo unspecified), the LC retention time was 1.94 min.

As to `CCC=CCC1C(=O)C=CC1CCCCCCCC(=O)O` (stereo unspecified), the LC retention time was 9.37 min.

On to `CCCCCC=CCC(O)C(O)CCCCCCCC(=O)O` (stereo unspecified), for which the LC retention time was 8.54 min.

Turning to `CC1(C)CCC2(C(=O)O)CCC3(C)C(=CCC4C5(C)CCC(OC6OC(C(=O)O)C(O)C(OC7OC(CO)C(O)C(O)C7O)C6O)C(C)(CO)C5CCC43C)C2C1` (stereo unspecified), the LC retention time is 7.55 min.

As for `CC(NC(=O)Cc1c[nH]c2ccccc12)C(=O)O` (stereo unspecified), the LC retention time is 4.55 min.

Turning to `OCC1OC(Oc2cc3c(OC4OC(CO)C(O)C(O)C4O)cc(O)cc3[o+]c2-c2ccc(O)cc2)C(O)C(O)C1O` (stereo unspecified), the LC retention time was 2.71 min.
